Reference: BindingDB's records for doi:10.1016/s0960-894x(98)00617-9 (Scripps Research Institute, 1999)
pIC50: −log10 of the molar value.

How the values were obtained:
[1] = Compound was tested for inhibitory activity against alpha-Fucosidase obtained from Bovine epididymis
[2] = Compound was tested for inhibitory activity against alpha-1,2-Fucosidase obtained from Arthrobacter oxidans F1
[3] = Compound was tested for inhibitory activity against alpha-Fucosidase obtained from Bovine kidney

Row | pIC50 [1] | pIC50 [2] | pIC50 [3] | SMILES
1 | 6.77 | 6.94 | 7.30 | CC1NC(CO)(CNC(=O)CN)C(O)C(O)C1O (centres undefined) [2-Amino-N-(3,4,5-trihydroxy-2-hydroxymethyl-6-methyl-piperidin-2-ylmethyl)-acetamide]
2 | 6.80 | 7.10 | 6.69 | CC1NC(CN)(CO)C(O)C(O)C1O (centres undefined) [2-Aminomethyl-2-hydroxymethyl-6-methyl-piperidine-3,4,5-triol]
3 | 6.96 | 6.91 | 7.12 | CC1NC(C#N)(CO)C(O)C(O)C1O (centres undefined) [3,4,5-Trihydroxy-2-hydroxymethyl-6-methyl-piperidine-2-carbonitrile]
